Consider 31 compounds from US20010044445A1, “AZOLE INHIBITORS OF CYTOKINE PRODUCTION” (priority 1999, published 2001).

The subject of series [1] is Human peripheral blood mononuclear cells. Kind of series: Human Concanavalin-A Proliferation Assay (Con HU Assay). It counts as cell-based. Conditions: concanavalin-A stimulated human PBMC; for inhibition at 1 µM / inhibition at 10 µM / inhibition at 100 µM: 72 h, read-out: % Inhibition of proliferation (at concentrations of 1,10, or 100 μm); for inhibition at 1 µM: concentration 1 μm (in parentheses in the cell); for inhibition at 1 µM / inhibition at 10 µM / inhibition at 100 µM / % Inhibition of proliferation (at concentrations of 1,10, or 100 μm): 3 days; for IC50: tritiated thymidine. The procedure, abridged: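 Proliferation read as tritiated thymidine uptake (0.5 μCi/well, 6 h pulse on day 3) in human PBMC cultured 3 days with 2.5 μg/ml (final) concanavalin-A. Cells, 50,000 per well in supplemented RPMI 1640 with 10% FBS, received compound 15 min before mitogen.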

Where [2] appears, read: Homo sapiens, PBMC, concentration 10 μm (in parentheses in the cell).
The mark [3] stands for this setting: Homo sapiens, PBMC, concentration 100 μm (in parentheses in the cell).
Where [4] appears, read: concentration 10 μm (in parentheses in the cell).

As usually defined, the melting point is the temperature of the solid-liquid transition. `O=C(Nc1cccc(-n2nc(C(F)(F)F)cc2C(F)(F)F)c1)c1cc([N+](=O)[O-])ccc1Cl` [Example 199, N-[3-[3,5-bis(trifluoromethyl)-1H-pyrazol-1-yl]phenyl]-2-chloro-5-nitrobenzamide]: the melting point was 147 to 152 °C. Moreover, the inhibition at 1 µM in series [1] (Homo sapiens, PBMC) worked out at 30%.
Usually IC50 stands for the concentration needed to halve the response being measured. A low value points to greater potency in that assay. Regarding `FC(F)(F)c1cc(C(F)(F)F)n(-c2ccc(/C=C/c3ccccc3Cl)cc2)n1` [Example 154, (E)-1-[4-[2-(2-chlorophenyl)ethenyl]phenyl]-3,5-bis(trifluoromethyl)-1H-pyrazole], the melting point lay within 81 to 82 °C. Moreover, the inhibition at 10 µM in series [1] (setting [2]) is 52%. In series [1] (Homo sapiens, PBMC), this compound came in with a concentration for half-maximal inhibition (IC50) of 3820 nM.
`O=C(Nc1ccc(-n2nc(C(F)(F)F)cc2C(F)(F)F)cc1)c1c(F)ccc([N+](=O)[O-])c1F` [Example 230, N-[4-[3,5-bis(trifluoromethyl)-1H-pyrazol-1-yl]phenyl]-2,6-difluoro-3-nitrobenzamide] gave a melting point of 187 to 189 °C. The inhibition at 1 µM in series [1] (Homo sapiens, PBMC) stood at 64%.
`CS(=O)(=O)c1cccc(C(=O)Nc2ccc(-n3nc(C(F)(F)F)cc3C(F)(F)F)cc2)c1` [Example 126, N-[4-[3,5-bis(trifluoromethyl)-1H-pyrazol-1-yl]phenyl]-3-(methylsulfonyl)benzamide] registered a melting point of 194 to 195 °C. Moreover, the inhibition at 10 µM in series [1] (setting [2]) is 79%. Besides, the IC50 in series [1] (Homo sapiens, PBMC) came to 4910 nM.
`O=C(/C=C/c1ccccc1Cl)Nc1ccc(-n2nc(C(F)(F)F)cc2C(F)(F)F)cc1` [Example 21, (E)-N-[4-[3,5-bis(trifluoromethyl)-1H-pyrazol-1-yl]phenyl]-3-(2-chlorophenyl)-2-propenamide] yielded a melting point of 173 to 175 °C. The inhibition at 1 µM in series [1] (Homo sapiens, PBMC) amounted to 2%.
Turning to `Cc1ccsc1C(=O)Nc1ccc(-n2nc(C(F)(F)F)cc2C(F)(F)F)cc1` [Example 162, N-[4-[3,5-bis(trifluoromethyl)-1H-pyrazol-1-yl]phenyl]-3-methyl-2-thiophenecarboxamide], the melting point was 185 to 188 °C. In series [1] (setting [2]), the inhibition at 10 µM is 100%. It took 44 nM to reach half-maximal inhibition in series [1] (Homo sapiens, PBMC) (IC50).
`O=C(Nc1ccc(-n2nc(C(F)(F)F)cc2C(F)(F)F)cc1)c1ccccc1` [Example 92, N-[4-[3,5-bis(trifluoromethyl)-1H-pyrazol-1-yl]phenyl]benzamide]: the melting point fell in the range of 177 to 178 °C. For the same compound, the inhibition at 100 µM in series [1] (setting [3]) stood at 92%. The compound further displayed an IC50 in series [1] (Homo sapiens, PBMC) of 673 nM.
The compound `O=C(Nc1ccc(-n2nc(C(F)(F)F)cc2OC(F)F)cc1)c1ccccc1F` [Example 352, N-(4-(5-(difluoromethoxy)-3-(trifluoromethyl)-1H-pyrazol-1-yl)phenyl)-2-fluorobenzamide] displayed a melting point of 130 to 131 °C. For the same compound, in series [1] (Homo sapiens, PBMC), half-maximal inhibition (IC50) required 141 nM.
The compound `Cc1ccc(C(=O)Nc2ccc(-n3nc(C(F)(F)F)cc3C(F)(F)F)cc2)s1` [Example 44, N-[4-[3,5-bis(trifluoromethyl)-1H-pyrazol-1-yl]phenyl]-5-methyl-2-thiophenecarboxamide] returned a melting point of 200 to 202 °C. Moreover, in series [1] (Homo sapiens, PBMC), the inhibition at 1 µM is 29%.
As to `Cc1nnsc1C(=O)Nc1ccc(-n2nc(C(F)(F)F)cc2O)cc1` [Example 288, N-[4-[5-hydroxy-3-(trifluoromethyl)-1H-pyrazol-1-yl]phenyl]-4-methyl-1,2,3-thiadiazole-5-carboxamide], the melting point is 177 to 179 °C. In series [1] (Homo sapiens, PBMC), the inhibition at 1 µM came to 16%.
`CCN(CC)c1ccc(C(=O)Nc2ccc(-n3nc(C(F)(F)F)cc3C(F)(F)F)cc2)cc1` [Example 122, N-[4-[3,5-bis(trifluoromethyl)-1H-pyrazol-1-yl]phenyl]-4-(diethylamino)benzamide]: the inhibition at 1 µM in series [1] (Homo sapiens, PBMC) was found to be 15%.
`Cc1nnsc1C(=O)Nc1ccc(-n2nc(-c3ccoc3)cc2Cl)cc1` [Example 355, N-(4-(5-chloro-3-(3-furyl)-1H-pyrazol-1-yl)phenyl)-4-methyl-1,2,3-thiadiazole-5-carboxamide] came in with an IC50 in series [1] (Homo sapiens, PBMC) of 282 nM.
The same measure, in the same setting: as for `O=C(Nc1ccc(-n2nc(C(F)(F)F)cc2[N+](=O)[O-])cc1)c1ccccc1F` [Example 326, 2-fluoro-N-(4-(5-nitro-3-(trifluoromethyl)-1H-pyrazol-1-yl)phenyl)benzamide], the figure is 166 nM.
The compound `O=C(Nc1ccc(-n2nc(C(F)(F)F)cc2C(F)(F)F)cc1)c1cc([N+](=O)[O-])c(Cl)c([N+](=O)[O-])c1Cl` [Example 233, N-4-[3,5-bis(trifluoromethyl)-1H-pyrazol-1-yl]phenyl-2,4-dichloro-3,5-dinitrobenzamide] gave an IC50 in series [1] of 340 nM. Besides, the “% Inhibition of proliferation (at concentrations of 1,10, or 100 μm)” value (“% Inhibition of proliferation” below) in series [1] (setting [4]) is on record as 100(10) %.
Regarding `N#Cc1cccc(NCc2ccc(-n3nc(C(F)(F)F)cc3C(F)(F)F)cc2)c1` [Example 128, 3-[[[4-[3,5-bis(trifluoromethyl)-1H-pyrazol-1-yl]phenyl]methyl]amino]benzonitrile], the inhibition at 1 µM in series [1] (Homo sapiens, PBMC) stood at 25%.
Turning to `O=C(Nc1ccc(-n2nc(C(F)(F)F)cc2C(F)(F)F)cc1)c1cccc(Br)c1` [Example 144, N-[4-[3,5-bis(trifluoromethyl)-1H-pyrazol-1-yl]phenyl]-3-bromobenzamide], in series [1] (setting [3]), the inhibition at 100 µM worked out at 100%. Moreover, the IC50 in series [1] (Homo sapiens, PBMC) is 240 nM.
As to “N-(4-(5-acetyl-3-(trifluoromethyl)-1H-pyrazol-1-yl)phenyl)-2-fluorobenzamide [Example 305]”, the IC50 in series [1] turned out to be 170 nM.
Regarding `CN(C)c1ccccc1C(=O)Nc1ccc(-n2nc(C(F)(F)F)cc2C(F)(F)F)cc1` [Example 86, N-[4-[3,5-bis(trifluoromethyl)-1H-pyrazol-1-yl]phenyl]-2-(dimethylamino)benzamide], the inhibition at 1 µM in series [1] (Homo sapiens, PBMC) came to 33%.
As for `NCc1ccc(C(=O)Nc2ccc(-n3nc(C(F)(F)F)cc3C(F)(F)F)cc2)c(Cl)c1` [Example 294, 4-(aminomethyl)-N-(4-(3,5-bis(trifluoromethyl)-1H-pyrazol-1-yl)phenyl)-2-chlorobenzamide], the IC50 in series [1] (Homo sapiens, PBMC) turned out to be 299 nM.
In turn, `N#Cc1cc(-c2nccs2)nn1-c1ccc(NC(=O)c2ccncc2F)cc1` [Example 338, N-(4-(5-cyano-3-(1,3-thiazol-2-yl)-1H-pyrazol-1-yl)phenyl)-3-fluoroisonicotinamide] had an IC50 in series [1] (Homo sapiens, PBMC) of 164 nM.
The same measure, in the same setting: as for `O=C(Nc1ccc(-n2nc(C(F)(F)F)cc2C(F)(F)F)cn1)c1ccccc1F` [Example 297, N-(5-(3,5-bis(trifluoromethyl)-1H-pyrazol-1-yl)-2-pyridinyl)-2-fluorobenzamide], the figure is 251 nM.
Same read-out and setting: as for `COC(=O)c1cc(NC(=O)c2ccccc2F)ccc1-n1nc(C(F)(F)F)cc1C(F)(F)F` [Example 293, methyl 2-(3,5-bis(trifluoromethyl)-1H-pyrazol-1-yl)-5-((2-fluorobenzoyl)amino)benzoate], the figure is 409 nM.
In turn, `N#Cc1cccc(NCc2ccc(-n3nc(C(F)(F)F)cc3C(F)(F)F)cc2)c1` [Example 95, 3-[4-[[[3,5-bis(trifluoromethyl)-1H-pyrazol-1-yl]phenyl]methyl]amino]benzonitrile] registered an IC50 in series [1] of 7280 nM. Also, the “% Inhibition of proliferation” value in series [1] (setting [4]) is recorded as 47(10) %.
In turn, `N#Cc1cc(NC(=O)c2ccccc2F)ccc1-n1nc(C(F)(F)F)cc1C(F)(F)F` [Example 299, N-(4-(3,5-bis(trifluoromethyl)-1H-pyrazol-1-yl)-3-cyanophenyl)-2-fluorobenzamide] displayed a concentration for half-maximal inhibition (IC50) in series [1] (Homo sapiens, PBMC) of 269 nM.
In series [1] (Homo sapiens, PBMC), `O=C(Nc1ccc(-n2nc(C(F)(F)F)cc2[N+](=O)[O-])cc1)c1ccncc1F` [Example 333, 3-fluoro-N-(4-(5-nitro-3-(trifluoromethyl)-1H-pyrazol-1-yl)phenyl)isonicotinamide] displayed a half-maximal inhibitory concentration (IC50) of 410 nM.
`O=C(Nc1ccccc1Br)c1ccc(-n2nc(C(F)(F)F)cc2C(F)(F)F)cc1` [Example 192, 4-[3,5-Bis(trifluoromethyl)-1H-pyrazol-1-yl]-N-(2-bromophenyl)benzamide]: the inhibition at 1 µM in series [1] (Homo sapiens, PBMC) stood at 10%.
Consider `O=C(Nc1ccc(-n2nc(C(F)(F)F)cc2C(F)(F)F)cc1)c1cc(Br)c(Br)s1` [Example 263, N-[4-[3,5-bis(trifluoromethyl)-1H-pyrazol-1-yl]phenyl]-2,3-dibromo-5-thiophenecarboxamide], for which the inhibition at 10 µM in series [1] (setting [2]) worked out at 100%. The compound further returned an IC50 in series [1] (Homo sapiens, PBMC) of 2930 nM.
For `Cn1cccc1-c1cc(OC(F)F)n(-c2ccc(NC(=O)c3ccncc3F)cc2)n1` [Example 360, N-(4-(5-(difluoromethoxy)-3-(1-methyl-1H-pyrrol-2-yl)-1H-pyrazol-1-yl)phenyl)-3-fluoroisonicotinamide], the IC50 in series [1] (Homo sapiens, PBMC) was determined as 329 nM.
Compound `Cc1nnsc1C(=O)Nc1ccc(-n2nc(-c3nccs3)cc2C(F)(F)F)cc1` [Example 342, 4-methyl-N-(4-(3-(1,3-thiazol-2-yl)-5-(trifluoromethyl)-1H-pyrazol-1-yl)phenyl)-1,2,3-thiadiazole-5-carboxamide] came in with an IC50 in series [1] (Homo sapiens, PBMC) of 238 nM.
Regarding `COc1ccc(C(=O)Nc2ccc(-n3nc(C(F)(F)F)cc3C(F)(F)F)cc2)cc1OC` [Example 98, N-[4-[3,5-bis(trifluoromethyl)-1H-pyrazol-1-yl]phenyl]-3-4-dimethoxybenzamide], the concentration for half-maximal inhibition (IC50) in series [1] worked out at 4920 nM. Moreover, in series [1] (concentration 100 μm (in parentheses in the cell)), the “% Inhibition of proliferation” value is on record as 94(100) %.
`Cc1nnsc1C(=O)Nc1ccc(-n2nc(-c3cccnc3)cc2[N+](=O)[O-])cc1` [Example 337, N-[4-[3-(3-pyridyl)-5-nitro-1H-pyrazol-1-yl]phenyl]-4-methylthiadiazol-5-yl-carboxamide] displayed a 50% inhibitory concentration (IC50) in series [1] of 221 nM.
